In patent publication US5151517A, “Derivatives of tetrahydro-2,3,6,7,1H,5H,11H-(1)benzopyrano(6,7,8,i,j)quinolizinone-11 usable as markers for organic compounds, particularly biological compounds with a view to their detection by chemiluminescence or fluorescence” (Laboratories Eurobio, priority 1989, dated 1992):
Values belong to the compound of their own block, whether it stands above or below them.

Key:
[1] = Chemiluminescence measurements with TCPO and H2O2; type: physicochemical; conditions: TCPO = bis(trichloro-2,4,6 phenyl) oxalate; for RC = chemiluminescence quantum efficiency: 10^-3 mole/l coumarin, imidazole nitrate buffer pH 7.5; for RE = excitation efficiency: RC = Rex × RF
Description: (§1) The absorbance measurements were carried out with a Jobin Yvon JY3 spectrophotometer. The chemiluminescence measurements were obtained by using a Jobin Yvon JY4 spectrofluorimeter with 10 nm slit widths. The cell for the liquid samples is a 10×10 mm quart cell with a capacity of 3 ml and filled with 2 ml of solution, which corresponds to a real solution volume exposed to the photomultiplier of 1.35 ml.
(§2) In order to determine the chemiluminescence quantum efficiencies Rc, the intensity was estimated as a function of time at the emission maximum. When the intensity decrease is relatively low, the emission spectrum is plotted and then the intensity is followed as a function of time until it has dropped to 2% of the maximum intensity.
(§3) The other luminescence parameters are measured directly. These consist of the maximum intensity (lmax), the time for reaching the maximum intensity (Tmax) and the time for reaching half the maximum intensity following the maximum time (T1/2).
(§4) The chemi luminescence efficiency Rc is calculated by the Rauhut method described in J. Am. Chem. Soc., 88, 15, 1966, p.3604.
(§5) The excitation efficiency Rex is determined on the basis of the formula: […]
(§6) For chemiluminescence measurements with TCPO, to 1 ml of the solution containing 10^-3 mole/l of coumarin are added 0.5 ml of a 2·10^-3 mole/l TCPO solution in ethyl acetate, 0.5 ml of a 2·10^-2 mole/l H2 O2 solution in acetone and 10 μl of a 0.1 mole/l imidazole nitrate buffer at pH 7.5. When DNPO is used, to the same solution of coumarin in acetone are added 0.5 ml of a 10^-3 mole/l DNPO solution in ethyl acetate and 0.5 ml of a 10^-2 mole/l H2 O2 solution in acetone.

[2] = Chemiluminescence measurements with DNPO (printed DMPO in table 2) and H2O2; type: physicochemical; conditions: DMPO = bis(dinitro-2,4 phenyl)oxalate; for RC = chemiluminescence quantum efficiency: 10^-3 mole/l coumarin; for RE = excitation efficiency: RC = Rex × RF
Description: as §1, §2, §3, §4, §5, §6

[3] = Fluorescence measurements (quantum efficiency vs quinine disulphate, sensitivity); type: physicochemical; conditions: for S = fluorescence sensitivity: acetone/ethyl acetate 75:25; for RF = fluorescence quantum efficiency: acetone/ethyl acetate 75:25, 10^-6 mole/l coumarin, 20 ± 2° C., vs quinine disulphate
Description: The fluorescence measurements are carried out with a Perkin Elmer LS5 spectrifluorometer with 2 nm slit widths for two monochromators.
(§7) Fluorescence and Absorbance Measurements
(§8) These measurements were carried out at 20^+ 2° C. and the quantum efficiencies of fluorescence RF of coumarins-1, 311 and 102 were determined compared with quinine disulphate, whose fluorescence quantum efficiency is 0.546 using the Parker method described in Analyst, 85, 1960, p. 587 using a 2 mg/l quinine disulphate solution in 0.1N H2 SO4.
(§9) For the coumarins, use was made of a solution of acetone and ethyl acetate in a volume ratio of 75:25 with a 10^-6 mole/l coumarin concentration ensuring in each case an absorbance below 0.05.

[4] = Absorbance measurements (molecular extinction coefficient); type: physicochemical; conditions: acetone/ethyl acetate 75:25, 10^-6 mole/l coumarin
Description: as §1, §7, §8, §9

[5] = Comparison of fluorescence, absorbance and chemiluminescence properties of coumarin nuclei; type: physicochemical; conditions: compared with coumarine-1 and coumarine-311, tables 1 and 2
Description: The fluorescence measurements are carried out with a Perkin Elmer LS5 spectrifluorometer with 2 nm slit widths for two monochromators. The absorbance measurements were carried out with a Jobin Yvon JY3 spectrophotometer. The chemiluminescence measurements were obtained by using a Jobin Yvon JY4 spectrofluorimeter with 10 nm slit widths. The cell for the liquid samples is a 10×10 mm quart cell with a capacity of 3 ml and filled with 2 ml of solution, which corresponds to a real solution volume exposed to the photomultiplier of 1.35 ml. […] For the coumarins, use was made of a solution of acetone and ethyl acetate in a volume ratio of 75:25 with a 10^-6 mole/l coumarin concentration ensuring in each case an absorbance below 0.05. […] When DNPO is used, to the same solution of coumarin in acetone are added 0.5 ml of a 10^-3 mole/l DNPO solution in ethyl acetate and 0.5 ml of a 10^-2 mole/l H2 O2 solution in acetone.

[6] = Chemiluminescence as a function of the pH of the solution; type: physicochemical
Description: as §1, §2, §3, §4, §6
Table 4 gives the variations of the chemiluminescence efficiency, lmax, Tmax and T1/2, as a function of the pH of the solution. […] However, the values for Tmax and T1/2 decrease when the pH increases beyond 5.

[7] = Chemiluminescence with TCPO and H2O2 as a function of the coumarin-102 concentration; type: physicochemical; conditions: for Imax (maximum intensity) / RC × 10^4 (chemiluminescence efficiency) / T1/2 (time for reaching half the maximum intensity following the maximum time) / Tmax (time for reaching the maximum intensity): TCPO and H2O2
Description: The absorbance measurements were carried out with a Jobin Yvon JY3 spectrophotometer. The chemiluminescence measurements were obtained by using a Jobin Yvon JY4 spectrofluorimeter with 10 nm slit widths. The cell for the liquid samples is a 10×10 mm quart cell with a capacity of 3 ml and filled with 2 ml of solution, which corresponds to a real solution volume exposed to the photomultiplier of 1.35 ml. In order to determine the chemiluminescence quantum efficiencies Rc, the intensity was estimated as a function of time at the emission maximum. […] The other luminescence parameters are measured directly. These consist of the maximum intensity (lmax), the time for reaching the maximum intensity (Tmax) and the time for reaching half the maximum intensity following the maximum time (T1/2). The chemi luminescence efficiency Rc is calculated by the Rauhut method described in J. Am. Chem. […] When DNPO is used, to the same solution of coumarin in acetone are added 0.5 ml of a 10^-3 mole/l DNPO solution in ethyl acetate and 0.5 ml of a 10^-2 mole/l H2 O2 solution in acetone.

[8] = Hydrosolubility of a dried aliquot of luminarine-7; type: physicochemical; conditions: dried aliquot portion
Description: (§10) Stirring takes place for 2 hours and then the dicyclohexylurea formed is filtered. The remaining product, luminarine-7, is kept in solution in dimethyl formamide.

[9] = Storage stability of luminarine-7 in dimethyl formamide solution; type: physicochemical; conditions: -20° C., in the presence of P2O5
Description: as §10

[10] = reference standard; 2 mg/l in 0.1N H2SO4; cited from earlier work

RC = chemiluminescence quantum efficiency [1]: 0.17 10^2 E · mole^-1 | RE = excitation efficiency [1]: 0.32 10^2 | RC = chemiluminescence quantum efficiency [2]: 0.13 10^2 E · mole^-1 | RE = excitation efficiency [2]: 0.24 10^2 | S = fluorescence sensitivity [3]: 40 10^3 | RF = fluorescence quantum efficiency [3]: 0.52 | ε = molecular extinction coefficient, 365 nm [4]: 26900 M⁻¹ cm⁻¹
SMILES: Cc1cc(=O)oc2cc(N(C)C)ccc12 [COUMARINE-311, dimethylamino-7 methyl-4 coumarin]

RC = chemiluminescence quantum efficiency [1]: 0.37 10^2 E · mole^-1 | RE = excitation efficiency [1]: 0.65 10^2 | RC = chemiluminescence quantum efficiency [2]: 0.26 10^2 E · mole^-1 | RE = excitation efficiency [2]: 0.45 10^2 | S = fluorescence sensitivity [3]: 36 10^3 | RF = fluorescence quantum efficiency [3]: 0.57 | Imax (maximum intensity) ([6]; pH 4): 24 A.U. | RC × 10^4 (chemiluminescence efficiency) ([6]; pH 4): 1.52 E · mole^-1 | T1/2 (time for reaching half the maximum intensity following the maximum time) ([6]; pH 4): 300 s | Tmax (time for reaching the maximum intensity) ([6]; pH 4): 48 s | Imax (maximum intensity) ([6]; pH 5): 17 A.U. | RC × 10^4 (chemiluminescence efficiency) ([6]; pH 5): 1.58 E · mole^-1 | T1/2 (time for reaching half the maximum intensity following the maximum time) ([6]; pH 5): 360 s | Tmax (time for reaching the maximum intensity) ([6]; pH 5): 60 s | Imax (maximum intensity) ([6]; pH 6): 25 A.U. | RC × 10^4 (chemiluminescence efficiency) ([6]; pH 6): 2.34 E · mole^-1 | T1/2 (time for reaching half the maximum intensity following the maximum time) ([6]; pH 6): 336 s | Tmax (time for reaching the maximum intensity) ([6]; pH 6): 48 s | Imax (maximum intensity) ([6]; pH 7): 110 A.U. | RC × 10^4 (chemiluminescence efficiency) ([6]; pH 7): 2.23 E · mole^-1 | T1/2 (time for reaching half the maximum intensity following the maximum time) ([6]; pH 7): 108 s | Tmax (time for reaching the maximum intensity) ([6]; pH 7): 24 s | Imax (maximum intensity) ([6]; pH 8): 245 A.U. | RC × 10^4 (chemiluminescence efficiency) ([6]; pH 8): 1.60 E · mole^-1 | T1/2 (time for reaching half the maximum intensity following the maximum time) ([6]; pH 8): 24 s | Tmax (time for reaching the maximum intensity) ([6]; pH 8): 12 s | ε = molecular extinction coefficient, 365 nm [4]: 23000 M⁻¹ cm⁻¹ | Imax (maximum intensity) ([7]; (C102) 1.4 × 10^-3): 301 A.U. | RC × 10^4 (chemiluminescence efficiency) ([7]; (C102) 1.4 × 10^-3): 12.0 E · mole^-1 | T1/2 (time for reaching half the maximum intensity following the maximum time) ([7]; (C102) 1.4 × 10^-3): 6 s | Tmax (time for reaching the maximum intensity) ([7]; (C102) 1.4 × 10^-3): 12 s | Imax (maximum intensity) ([7]; (C102) 1.4 × 10^-6): 75 A.U. | RC × 10^4 (chemiluminescence efficiency) ([7]; (C102) 1.4 × 10^-6): 4.14 E · mole^-1 | T1/2 (time for reaching half the maximum intensity following the maximum time) ([7]; (C102) 1.4 × 10^-6): 9 s | Tmax (time for reaching the maximum intensity) ([7]; (C102) 1.4 × 10^-6): 12 s | Imax (maximum intensity) ([7]; (C102) 1.4 × 10^-7): 31 A.U. | RC × 10^4 (chemiluminescence efficiency) ([7]; (C102) 1.4 × 10^-7): 2.31 E · mole^-1 | T1/2 (time for reaching half the maximum intensity following the maximum time) ([7]; (C102) 1.4 × 10^-7): 7.2 s | Tmax (time for reaching the maximum intensity) ([7]; (C102) 1.4 × 10^-7): 12 s | Imax (maximum intensity) ([7]; (C102) 1.4 × 10^-8): 3.2 A.U. | RC × 10^4 (chemiluminescence efficiency) ([7]; (C102) 1.4 × 10^-8): 0.40 E · mole^-1 | T1/2 (time for reaching half the maximum intensity following the maximum time) ([7]; (C102) 1.4 × 10^-8): 6 s | Tmax (time for reaching the maximum intensity) ([7]; (C102) 1.4 × 10^-8): 12 s | Imax (maximum intensity) ([7]; (C102) 1.4 × 10^-9): 0.3 A.U. | RC × 10^4 (chemiluminescence efficiency) ([7]; (C102) 1.4 × 10^-9): 0.20 E · mole^-1 | T1/2 (time for reaching half the maximum intensity following the maximum time) ([7]; (C102) 1.4 × 10^-9): 4.8 s | Tmax (time for reaching the maximum intensity) ([7]; (C102) 1.4 × 10^-9): 12 s
SMILES: Cc1cc(=O)oc2c3c4c(cc12)CCCN4CCC3 [COUMARINE-102, tetrahydro-2,3,5,6,7,1H,5H,11H-(1)-benzopyrano(6,7,8-ij)methyl-9 quinolizinone-11]
fluorescence, absorbance and chemiluminescence properties [5]: better fluorescence, absorbance and chemiluminescece properties | chemiluminescence efficiency as a function of concentration ([7]; TCPO and H2O2, table 3): chemiluminescence efficiency increases with the coumar in-102 concentration

hydrosolubility [8]: total hydrosolubility
SMILES: O=C(CCC(=O)ON1C(=O)CCC1=O)NCCOCCOCCOCCOCCOCCNC(=O)Cc1cc(=O)oc2c3c4c(cc12)CCCN4CCC3 [luminarine-7]
storage stability [9]: several months at -20 °C without any deterioration

SMILES: C=CC1CN2CCC1CC2C(O)c1ccnc2ccc(OC)cc12 (stereo not drawn) [quinine disulphate]
fluorescence quantum efficiency [10]: 0.546

SMILES: CCN(CC)c1ccc2c(C)cc(=O)oc2c1 [COUMARINE-1, dimethylamino-7 methyl-4 coumarin]
RC = chemiluminescence quantum efficiency [1]: 0.37 10^2 E · mole^-1 | RE = excitation efficiency [1]: 0.67 10^2 | RC = chemiluminescence quantum efficiency [2]: 0.18 10^2 E · mole^-1 | RE = excitation efficiency [2]: 0.33 10^2 | S = fluorescence sensitivity [3]: 57 10^3 | RF = fluorescence quantum efficiency [3]: 0.55 | ε = molecular extinction coefficient, 365 nm [4]: 38 000
